According to article PMC6273621, “Synthesis and the Biological Activity of Phosphonylated 1,2,3-Triazolenaphthalimide Conjugates” (Molecules, 2016):
Where two headings read alike, the source gives them in different places.

Experiments:
TK+ VZV strain = test: microbe, parasite or virus in culture; assay type: cell-based, varicella-zoster virus (VZV) strain Oka; settings: for EC50: Human alphaherpesvirus 3, HEL, read-out: Antiviral Activity EC50, TK+ VZV Strain, HEL cell cultures, concentration reducing virus plaque formation by 50%
TK− VZV strain = test: microbe, parasite or virus in culture; assay type: cell-based, varicella-zoster virus (VZV) strain 07−1; settings: Human alphaherpesvirus 3, HEL, read-out: Antiviral Activity EC50, TK− VZV Strain, HEL cell cultures; concentration reducing virus plaque formation by 50%
HEL cells = test: Cytotoxicity, cell morphology (MCC) in HEL cells; assay type: cell-based, human; settings: minimum cytotoxic concentration causing microscopically detectable alteration of cell morphology
Description: The cytotoxicity of the tested compounds toward the uninfected host cells was defined as the minimum cytotoxic concentration (MCC) that causes a microscopically detectable alteration of normal cell morphology.

[1] = system: murine leukemia (L1210) cells; test: Cytostatic activity, L1210 cell proliferation; assay type: cell-based; settings: Mus musculus, read-out: IC50 L1210
Protocol: (§1) All assays were performed in 96-well microtiter plates. To each well were added (5–7.5) × 10^4 tumor cells and a given amount of the test compound. The cells were allowed to proliferate for 48 h (murine leukemia L1210 cells) or 72 h (human lymphocytic CEM and human cervix carcinoma HeLa cells) at 37 °C in a humidified CO2-controlled atmosphere. At the end of the incubation period, the cells were counted in a Coulter counter.

[2] = system: human T-lymphocyte (CEM) cells; test: Cytostatic activity, CEM cell proliferation; assay type: cell-based; settings: CCRF-CEM, 72 h, read-out: IC50 CEM
Protocol: as §1

[3] = system: human cervix carcinoma cells (HeLa); test: Cytostatic activity, HeLa cell proliferation; assay type: cell-based; settings: 72 h, read-out: IC50 HeLa
Protocol: as §1

[4] = system: human dermal microvascular endothelial HMEC-1 cells; test: Cytostatic activity, HMEC-1 cell proliferation; assay type: cell-based
[5] = system: L1210, CEM, HeLa and HMEC-1 cells; test: Cytostatic activity, overall statement on the tested cell lines; assay type: cell-based; settings: naphthalimides devoid of the 1,2,3-triazole unit
Protocol: as §1

[6] = L1210, cell proliferation, 48 h
[7] = HMEC-1, cell proliferation, read-out: IC50 HMEC-1

Compound | EC50 (TK+ VZV strain) | EC50 (TK− VZV strain) | Cytotoxicity, Cell Morphology (MCC) (HEL cells) | IC50 ([1]; L1210, 48 h) | IC50 [2] | IC50 [3] | IC50 ([4]; HMEC-1, read-out: IC50 HMEC-1) | melting point | IC50 [1, 6] | IC50 ([2]; cell proliferation) | IC50 ([3]; cell proliferation) | IC50 [4, 7] | Cytostatic activity (in words) [5] | Potency toward the TK+ VZV strain (in words) (TK+ VZV strain; HEL cell cultures)
CCOP(=O)(CCOCCn1cc(CN2C(=O)c3cccc4c(Br)ccc(c34)C2=O)nn1)OCC [Compound 15h, Diethyl 2-(2-{4-[(6-Bromo-1,3-dioxo-1H-benzo[de]isoquinolin-2(3H)-yl)methyl]-1H-1,2,3-triazol-1-yl}ethoxy)ethylphosphonate] | 37.1 µM | 70.8 µM | >100 μM | 26 ± 2 µM | 29 ± 11 µM | 61 ± 15 µM | 151 µM | 92 to 93 °C |  |  |  |  |  | 
C#CCN1C(=O)c2cccc3c(Br)ccc(c23)C1=O [Compound 8] |  |  |  |  |  |  |  |  | ≥ 250 µM | ≥ 250 µM | > 250 µM | > 250 µM | inactive | 
CCOP(=O)(CC(O)Cn1cc(CN2C(=O)c3cccc4c(Br)ccc(c34)C2=O)nn1)OCC (centres unmarked) [Compound 15f, Diethyl 3-{4-[(6-Bromo-1,3-dioxo-1H-benzo[de]isoquinolin-2(3H)-yl)methyl]-1H-1,2,3-triazol-1-yl}-2-hydroxypropylphosphonate] | 86.4 µM | > 100 µM | >100 μM | 23 ± 3 µM | 60 ± 13 µM | 87 ± 21 µM | 152 ± 1 µM | 152 to 153 °C |  |  |  |  |  | 
CCOP(=O)(CC(O)Cn1cc(CN2C(=O)c3cccc4cc([N+](=O)[O-])cc(c34)C2=O)nn1)OCC (centres unmarked) [Compound 16f, Diethyl 3-{4-[(5-Nitro-1,3-dioxo-1H-benzo[de]isoquinolin-2(3H)-yl)methyl]-1H-1,2,3-triazol-1-yl}-2-hydroxypropylphosphonate] | 56.7 µM | 91.5 µM | >100 μM | 68 ± 11 µM | 71 ± 21 µM | 42 ± 21 µM | 155 ± 6 µM | 176 to 177 °C |  |  |  |  |  | 
CCOP(=O)(Cn1cc(CN2C(=O)c3cccc4cc([N+](=O)[O-])cc(c34)C2=O)nn1)OCC [Compound 16a, Diethyl {4-[(5-Nitro-1,3-dioxo-1H-benzo[de]isoquinolin-2(3H)-yl)methyl]-1H-1,2,3-triazol-1-yl}methylphosphonate] | 39.1 µM | 64.5 µM | >100 μM | 66 ± 7 µM | 69 ± 1 µM | 44 ± 19 µM | 154 ± 1 µM | 147 to 148 °C |  |  |  |  |  | 
CCOP(=O)(OCC)C(O)Cn1cc(CN2C(=O)c3cccc4cc([N+](=O)[O-])cc(c34)C2=O)nn1 (centres unmarked) [Compound 16e, Diethyl 2-{4-[(5-Nitro-1,3-dioxo-1H-benzo[de]isoquinolin-2(3H)-yl)methyl]-1H-1,2,3-triazol-1-yl}-1-hydroxyethylphosphonate] | 83.6 µM | > 100 µM | >100 μM | 111 ± 39 µM | 127 ± 14 µM | 132 ± 2 µM | > 250 µM | 212 to 213 °C |  |  |  |  |  | 
CCOP(=O)(CCOCCn1cc(CN2C(=O)c3cccc4cccc(c34)C2=O)nn1)OCC [Compound 14h, Diethyl 2-(2-{4-[(1,3-Dioxo-1H-benzo[de]isoquinolin-2(3H)-yl)methyl]-1H-1,2,3-triazol-1-yl}ethoxy)ethylphosphonate] | > 100 µM | 74.6 µM | >100 μM | 196 ± 32 µM | 171 ± 25 µM | 154 ± 22 µM | 222 ± 39 µM | 156 to 158 °C |  |  |  |  |  | 
CCOP(=O)(CCn1cc(CN2C(=O)c3cccc4cc([N+](=O)[O-])cc(c34)C2=O)nn1)OCC [Compound 16b, Diethyl 2-{4-[(5-Nitro-1,3-dioxo-1H-benzo[de]isoquinolin-2(3H)-yl)methyl]-1H-1,2,3-triazol-1-yl}ethylphosphonate] | > 100 µM | 27.6 µM | 100 μM | > 250 µM | 176 ± 37 µM | 54 ± 21 µM | 118 ± 71 µM |  |  |  |  |  |  | no potency
C#CCN1C(=O)c2cccc3cc([N+](=O)[O-])cc(c23)C1=O [Compound 11, 5-Nitro-2-(prop-2-yn-1-yl)-1H-benzo[de]isoquinoline-1,3(2H)-dione] | 48.9 µM | > 100 µM | 100 μM |  |  |  |  | 213 to 214 °C | 177 ± 16 µM | 229 ± 18 µM | 109 ± 5 µM | > 250 µM | inactive | 
CCOP(=O)(CCn1cc(CN2C(=O)c3cccc4c(Br)ccc(c34)C2=O)nn1)OCC [Compound 15b] | 34.2 µM | 38.1 µM | >100 μM | 14 ± 1 µM | 56 ± 20 µM | 62 ± 20 µM | 152 ± 1 µM | 132 to 134 °C |  |  |  |  |  | 
CCOP(=O)(CCCn1cc(CN2C(=O)c3cccc4cccc(c34)C2=O)nn1)OCC [Compound 14c, Diethyl 3-{4-[(1,3-Dioxo-1H-benzo[de]isoquinolin-2(3H)-yl)methyl]-1H-1,2,3-triazol-1-yl}propylphosphonate] | > 100 µM | 64.5 µM | >100 μM | ≥ 250 µM | 124 ± 19 µM | 172 ± 20 µM | ≥ 250 µM | 131 to 132 °C |  |  |  |  |  | 
CCOP(=O)(CCOCCn1cc(CN2C(=O)c3cccc4cc([N+](=O)[O-])cc(c34)C2=O)nn1)OCC [Compound 16h, Diethyl 2-(2-{4-[(5-Nitro-1,3-dioxo-1H-benzo[de]isoquinolin-2(3H)-yl)methyl]-1H-1,2,3-triazol-1-yl}ethoxy)ethylphosphonate] | 40.9 µM | 64.5 µM | >100 μM | 64 ± 11 µM | 66 µM | 56 ± 16 µM | 152 ± 1 µM |  |  |  |  |  |  | 
CCOP(=O)(OCC)C(O)Cn1cc(CN2C(=O)c3cccc4cccc(c34)C2=O)nn1 (centres unmarked) [Compound 14e, Diethyl 2-{4-[(1,3-Dioxo-1H-benzo[de]isoquinolin-2(3H)-yl)methyl]-1H-1,2,3-triazol-1-yl}-1-hydroxyethylphosphonate] | 69.9 µM | > 100 µM | >100 μM | > 250 µM | > 250 µM | ≥ 250 µM | ≥ 250 µM | 186 to 188 °C |  |  |  |  |  | 
CN(C)CCN1C(=O)c2cccc3cc(N)cc(c23)C1=O [Amonafide, reference compound] | 5.36 µM | 7.82 µM | 20 μM |  |  |  |  |  | 1 ± 0.4 µM | 0.54 ± 0.5 µM | 2 ± 1.2 µM | 0.31 µM |  | 
CCOP(=O)(CCCCn1cc(CN2C(=O)c3cccc4cc([N+](=O)[O-])cc(c34)C2=O)nn1)OCC [Compound 16d, Diethyl 4-{4-[(5-Nitro-1,3-dioxo-1H-benzo[de]isoquinolin-2(3H)-yl)methyl]-1H-1,2,3-triazol-1-yl}butylphosphonate] | 29.9 µM | 53.9 µM | >100 μM | 70 ± 52 µM | 95 ± 4 µM | 81 ± 4 µM | 126 ± 37 µM | 150 to 151 °C |  |  |  |  |  | 
CCOP(=O)(CCCCn1cc(CN2C(=O)c3cccc4cccc(c34)C2=O)nn1)OCC [Compound 14d, Diethyl 4-{4-[(1,3-Dioxo-1H-benzo[de]isoquinolin-2(3H)-yl)methyl]-1H-1,2,3-triazol-1-yl}butylphosphonate] | 86.4 µM | 56.7 µM | >100 μM | 156 ± 40 µM | 119 ± 3 µM | 150 ± 11 µM | 180 ± 54 µM | 131 to 132 °C |  |  |  |  |  | 
CCOP(=O)(CCCn1cc(CN2C(=O)c3cccc4cc([N+](=O)[O-])cc(c34)C2=O)nn1)OCC [Compound 16c, Diethyl 3-{4-[(5-Nitro-1,3-dioxo-1H-benzo[de]isoquinolin-2(3H)-yl)methyl]-1H-1,2,3-triazol-1-yl}propylphosphonate] | 32.8 µM | 47.8 µM | >100 μM | 34 ± 9 µM | 55 ± 23 µM | 29 ± 17 µM | 136 ± 22 µM | 113 to 114 °C |  |  |  |  |  | 
CCOP(=O)(COCCn1cc(CN2C(=O)c3cccc4cc([N+](=O)[O-])cc(c34)C2=O)nn1)OCC [Compound 16g, Diethyl 2-{4-[(5-Nitro-1,3-dioxo-1H-benzo[de]isoquinolin-2(3H)-yl)methyl]-1H-1,2,3-triazol-1-yl}ethoxy-methylphosphonate] | 50.2 µM | > 100 µM | >100 μM | 71 ± 1 µM | 79 ± 4 µM | 76 ± 8 µM | 148 ± 3 µM | 89 to 90 °C |  |  |  |  |  | 
